Test results reported in US9808466B2, “Macrocyclic compounds as protein kinase inhibitors” (Fundación Centro Nacional de Investigaciones Oncologicas …, priority 2011, dated 2017).
Read-outs that look alike come from different tables or passages of the source.

Key:
[1] = target: T1, PI3K (p110α/p85α) (Homo sapiens, UniProt P42336); test: PI3K activity assay (ADP Hunter Plus); type: biochemical
T1 construct: purchased Carna Biosciences 07CBS-0402A
Procedure: The kinase activity was measured by using the commercial ADP Hunter™ Plus assay available from DiscoveRx (#33-016), which is a homogeneous assay to measure the accumulation of ADP, a universal product of kinase activity. […] Reaction was carried out for 1 hour at 25° C. Reagent A and B were sequentially added to the wells and plates were incubated for 30 min at 37° C. Fluorescence counts were read in a Victor instrument (Perkin Elmer) with the recommended settings (544 and 580 nm as excitation and emission wavelengths, respectively). Values were normalized against the control activity included for each enzyme (i.e., 100% PI3 kinase activity, without compound). These values were plotted against the inhibitor concentration and were fit to a sigmoid dose-response curve by using the Graphad software.

[2] = target: T2, PIM-1 (Homo sapiens, UniProt P11309); test: PIM-1 biochemical assay (ADP Hunter)
T2 construct: histidine tag (C); made in house
T2 sequence (P11309 whole entry): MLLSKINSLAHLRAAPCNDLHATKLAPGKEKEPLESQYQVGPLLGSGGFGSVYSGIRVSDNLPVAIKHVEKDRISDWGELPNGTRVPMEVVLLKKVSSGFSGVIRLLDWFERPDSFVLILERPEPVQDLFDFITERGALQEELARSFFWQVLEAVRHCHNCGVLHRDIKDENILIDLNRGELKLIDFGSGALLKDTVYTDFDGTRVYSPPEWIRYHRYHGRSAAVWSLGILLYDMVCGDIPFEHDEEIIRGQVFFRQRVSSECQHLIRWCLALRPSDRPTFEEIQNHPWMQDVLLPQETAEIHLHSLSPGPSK
Excerpt: The biochemical assay to measure PIM-1 activity relies on the ADP Hunter assay kit (DiscoveRx Corp., Cat. #90-0077), that determines the amount of ADP as direct product of the kinase enzyme activity.
The enzyme has been expressed and purified in-house as a recombinant human protein with a C-terminal histidine tag. The protein is active and stable.
Assay conditions were as indicated by the kit manufacturers with the following adaptations for the kinase activity step: • Kinase assay buffer and assay volume stay as recommended (15 mM HEPES, pH 7.4, 20 mM NaCl, 1 mM EGTA, 0.02% Tween 20, 10 mM MgCl2 and 0.1 mg/ml bovine γ-globulins/75 μl assay volume) • Incubation time and temperature: 60 min at 30° C. • PIM-1 concentration: 50 pg/μl • ATP concentration: 100 μM • PIM-1 substrate peptide: PIMtide ([…]) (SEQIDNO. 1) • Peptide concentration: 60 μM • Positive control for kinase activity inhibition: 1-10 μM Staurosporine • DMSO concentration have to stay below 2% during the kinase reaction
Assays were performed in either 96 or 384-well plates. The final outcome of the coupled reactions provided by the kit is the release of the fluorescent product Resorufin and has been measured with a multilabel HTS counter VICTOR V (PerkinElmer) using an excitation filter at 544 nm and an emission filter at 580 nm.

[3] = target: T3, mTOR (Homo sapiens, UniProt P42345); test: mTOR assay (LanthaScreen kinase activity assay); type: biochemical
T3 construct: purchased Invitrogen PV4754
T3 sequence (P42345 1360-2549 limits assumed): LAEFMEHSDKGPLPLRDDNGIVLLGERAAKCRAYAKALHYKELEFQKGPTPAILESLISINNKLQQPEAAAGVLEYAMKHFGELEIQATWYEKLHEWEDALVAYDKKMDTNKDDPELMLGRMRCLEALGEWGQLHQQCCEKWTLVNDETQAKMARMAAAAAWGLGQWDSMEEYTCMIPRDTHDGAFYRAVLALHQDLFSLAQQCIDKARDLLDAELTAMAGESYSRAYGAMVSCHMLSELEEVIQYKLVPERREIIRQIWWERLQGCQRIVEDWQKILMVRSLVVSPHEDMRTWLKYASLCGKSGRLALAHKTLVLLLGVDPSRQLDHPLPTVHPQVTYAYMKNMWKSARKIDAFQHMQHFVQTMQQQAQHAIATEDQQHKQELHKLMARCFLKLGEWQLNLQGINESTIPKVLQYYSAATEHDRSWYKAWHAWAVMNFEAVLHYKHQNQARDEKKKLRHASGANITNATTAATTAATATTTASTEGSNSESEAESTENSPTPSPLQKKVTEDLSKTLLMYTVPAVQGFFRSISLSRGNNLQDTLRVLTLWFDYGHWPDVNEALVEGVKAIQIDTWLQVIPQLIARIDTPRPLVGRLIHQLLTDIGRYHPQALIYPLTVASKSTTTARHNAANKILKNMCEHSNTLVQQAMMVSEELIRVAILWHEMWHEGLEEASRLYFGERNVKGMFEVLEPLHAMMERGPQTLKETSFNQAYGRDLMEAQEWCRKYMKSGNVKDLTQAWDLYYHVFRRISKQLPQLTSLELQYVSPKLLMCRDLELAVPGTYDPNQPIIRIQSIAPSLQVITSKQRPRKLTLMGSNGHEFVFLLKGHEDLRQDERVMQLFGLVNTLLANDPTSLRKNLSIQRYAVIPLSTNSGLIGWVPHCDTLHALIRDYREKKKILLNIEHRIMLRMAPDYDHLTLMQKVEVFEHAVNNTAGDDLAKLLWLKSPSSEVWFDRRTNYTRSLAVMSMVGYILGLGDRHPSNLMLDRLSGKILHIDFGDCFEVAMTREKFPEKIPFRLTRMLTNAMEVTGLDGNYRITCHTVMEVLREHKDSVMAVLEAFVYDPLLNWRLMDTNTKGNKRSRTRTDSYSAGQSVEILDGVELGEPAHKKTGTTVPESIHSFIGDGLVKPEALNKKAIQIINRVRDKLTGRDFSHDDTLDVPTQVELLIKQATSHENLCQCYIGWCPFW
Procedure: The enzymatic mTOR activity was measured using a LanthaScreen™ kinase activity assay (Invitrogen). The enzyme was purchased from Invitrogen (PV4754), as well as the GFP-labeled substrate (4EBP1-GFP; PV4759) and the Tb-anti-p4EBP1(pThr46) antibody (PV4757). The assay was performed in 50 mM HEPES buffer, pH 7.5, containing 1.5 mM MnCl2, 10 mM MgCl2, 1 mM EGTA, 2.5 mM DTT and 0.01% Tween-20. The concentration of the assay components were the following: 0.24 nM mTOR kinase, 400 nM 4EBP1-GFP, […] and serial dilutions of the compound (inhibitor) to be evaluated. After 1 h incubation at room temperature, 20 mM EDTA was used to stop the reaction and terbium-labeled antibody (4 nM) added to detect phosphorylated product. The antibody associates with the phosphorylated product resulting in an increased TR-FRET value. The TR-FRET value (a dimensionless number) was calculated as the ratio of the acceptor signal (GFP, emission at 520 nm) to the donor signal (terbium, emission at 495 nm). Values were plotted against the inhibitor concentration and fitted to a sigmoid dose-response curve using GraphPad software.

[4] = read-out: PI3K alpha activity (semi-quantitative IC50)
[5] = read-out: PIM-1 IC50 (in parentheses)
[6] = read-out: PIM-1 activity (semi-quantitative IC50)
[7] = read-out: mTOR activity (semi-quantitative IC50)
[8] = read-out: PI3K alpha activity, IC50 (semi-quantitative class)
[9] = PIM1, read-out: PIM-1 activity, IC50 (semi-quantitative class)
[10] = read-out: mTOR activity, IC50 (semi-quantitative class)
[11] = read-out: PI3K alpha actual IC50 (in parentheses)
[12] = read-out: PI3K alpha IC50 (in parentheses)
[13] = PIM1, read-out: PIM-1 actual IC50 (in parentheses)
[14] = read-out: mTOR actual IC50 (in parentheses)

T1 sequence (P42336 whole entry): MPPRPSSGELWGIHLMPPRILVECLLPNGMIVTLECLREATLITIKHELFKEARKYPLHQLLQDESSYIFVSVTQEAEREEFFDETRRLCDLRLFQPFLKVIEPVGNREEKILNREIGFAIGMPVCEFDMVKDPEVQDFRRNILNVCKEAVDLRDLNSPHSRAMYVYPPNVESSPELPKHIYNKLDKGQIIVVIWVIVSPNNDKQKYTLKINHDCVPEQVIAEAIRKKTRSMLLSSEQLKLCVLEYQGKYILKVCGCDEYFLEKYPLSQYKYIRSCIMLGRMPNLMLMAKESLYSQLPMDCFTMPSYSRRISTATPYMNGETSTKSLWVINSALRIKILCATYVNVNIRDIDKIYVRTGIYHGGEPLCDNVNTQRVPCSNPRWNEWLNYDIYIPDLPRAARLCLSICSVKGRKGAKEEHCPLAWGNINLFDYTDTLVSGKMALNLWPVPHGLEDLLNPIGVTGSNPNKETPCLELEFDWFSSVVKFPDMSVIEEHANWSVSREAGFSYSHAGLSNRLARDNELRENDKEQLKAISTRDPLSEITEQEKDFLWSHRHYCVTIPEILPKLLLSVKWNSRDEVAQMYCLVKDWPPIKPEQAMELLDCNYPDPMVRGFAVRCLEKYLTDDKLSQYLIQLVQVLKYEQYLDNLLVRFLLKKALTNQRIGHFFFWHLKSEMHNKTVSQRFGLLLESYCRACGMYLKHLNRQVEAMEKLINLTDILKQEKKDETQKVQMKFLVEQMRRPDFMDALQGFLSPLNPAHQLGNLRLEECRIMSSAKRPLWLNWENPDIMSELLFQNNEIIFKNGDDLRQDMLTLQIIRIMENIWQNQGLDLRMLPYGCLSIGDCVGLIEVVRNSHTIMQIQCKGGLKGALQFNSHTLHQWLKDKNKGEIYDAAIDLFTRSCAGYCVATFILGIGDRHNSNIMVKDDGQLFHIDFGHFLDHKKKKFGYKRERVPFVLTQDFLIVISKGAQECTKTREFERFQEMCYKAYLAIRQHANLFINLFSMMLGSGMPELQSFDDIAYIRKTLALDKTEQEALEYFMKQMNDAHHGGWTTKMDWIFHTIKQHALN
T1 sequence (P27986 whole entry partner): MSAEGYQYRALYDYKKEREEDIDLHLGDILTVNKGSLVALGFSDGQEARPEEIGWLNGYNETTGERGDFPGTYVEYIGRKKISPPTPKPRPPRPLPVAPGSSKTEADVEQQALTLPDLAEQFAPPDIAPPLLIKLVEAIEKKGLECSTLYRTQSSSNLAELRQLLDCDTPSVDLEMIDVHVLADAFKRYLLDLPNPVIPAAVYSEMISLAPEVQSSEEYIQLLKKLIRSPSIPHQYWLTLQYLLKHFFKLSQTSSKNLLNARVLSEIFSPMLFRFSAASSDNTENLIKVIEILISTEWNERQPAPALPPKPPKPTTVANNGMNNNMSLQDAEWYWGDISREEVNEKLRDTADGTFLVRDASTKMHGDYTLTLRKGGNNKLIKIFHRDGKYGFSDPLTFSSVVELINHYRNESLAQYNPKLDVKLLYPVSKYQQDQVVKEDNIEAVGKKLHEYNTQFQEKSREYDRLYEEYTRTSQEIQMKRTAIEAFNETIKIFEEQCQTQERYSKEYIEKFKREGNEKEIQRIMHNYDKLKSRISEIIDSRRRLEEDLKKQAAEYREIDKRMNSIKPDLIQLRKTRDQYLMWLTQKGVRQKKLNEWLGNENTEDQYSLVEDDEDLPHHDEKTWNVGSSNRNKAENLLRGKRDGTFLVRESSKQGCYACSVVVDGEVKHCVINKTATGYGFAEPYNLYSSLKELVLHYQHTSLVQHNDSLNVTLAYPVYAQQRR

Structure (SMILES) | IC50 [1, 8] | IC50 [2, 9] | IC50 [3, 10] | IC50 [1, 11] | also measured
COc1ccc2cc1C(=O)NCC1=CC=C(S1)c1ncnc3c1SC(=C3)c1cnc(OC)c(c1)NS2(=O)=O [compound 97] | – | – | – | – | IC50 [1, 4]: 100 to 1000 nM; IC50 [2, 5]: 62 nM; IC50 [2, 6]: < 100 nM; IC50 [3, 7]: > 1000 nM
COc1ncc2cc1NS(=O)(=O)c1cccc(c1)C(=O)NCCn1cc(cn1)-c1ncnc3c1OC2=C3 [compound 51] | 100 to 1000 nM | > 1000 nM | > 1000 nM | – | –
COc1ncc2cc1NS(=O)(=O)c1cccc(c1)C(=O)NCc1cc(ccn1)-c1ncnc3c1SC2=C3 [compound 42] | 100 to 1000 nM | 100 to 1000 nM | > 1000 nM | – | –
COc1ncc2cc1NS(=O)(=O)c1cccc(c1)C(=O)NCc1cncc(c1)-c1ncnc3sc-2cc13 [compound 21] | < 100 nM | 100 to 1000 nM | > 1000 nM | 85 nM | –
COc1ncc2cc1NS(=O)(=O)c1ccc(Cl)c(c1)C(=O)NCC1=CC=C(S1)c1ncnc3c1SC2=C3 [compound 98] | – | – | – | – | IC50 [1, 12]: 37 nM; IC50 [1, 4]: < 100 nM; IC50 [2, 5]: 13 nM; IC50 [2, 6]: < 100 nM; IC50 [3, 7]: > 1000 nM
O=C1NCc2cncc(c2)-c2ncnc3c2SC(=C3)c2cnc(O)c(c2)NS(=O)(=O)c2cccc1c2 [compound 45] | > 1000 nM | 100 to 1000 nM | > 1000 nM | – | –
COc1ncc2cc1NS(=O)(=O)c1cccc(c1)C(=O)NCC1=CC=C(S1)c1ccnc3c1SC2=C3 [compound 80] | 100 to 1000 nM | < 100 nM | > 1000 nM | – | IC50 [2, 13]: 15 nM
COc1ncc2cc1NS(=O)(=O)c1cccc(c1)C(=O)NCc1ccc(F)c(c1)-c1ccnc3ccc-2cc13 [compound 4] | < 100 nM | > 1000 nM | 100 to 1000 nM | 3 nM | –
COc1ncc2cc1NS(=O)(=O)c1cccc(c1)C(=O)NC[C@H]1CCN(C1)c1ncnc3c1SC2=C3C [compound 99] | – | – | – | – | IC50 [1, 12]: 43 nM; IC50 [1, 4]: < 100 nM; IC50 [2, 5]: 53 nM; IC50 [2, 6]: < 100 nM; IC50 [3, 7]: > 1000 nM
COc1ncc2cc1NS(=O)(=O)c1cccc(c1)C(=O)NCc1cncc(c1)-c1ncnc3ccc-2cc13 [compound 41] | < 100 nM | > 1000 nM | < 100 nM | 3 nM | IC50 [3, 14]: 16 nM
COc1ncc2cc1NS(=O)(=O)c1ccc(Cl)c(c1)C(=O)NCC1=CC=C(S1)c1ccnc3c1SC2=C3C [compound 102] | – | – | – | – | IC50 [1, 12]: 0.1 nM; IC50 [1, 4]: < 100 nM; IC50 [2, 5]: 9.5 nM; IC50 [2, 6]: < 100 nM; IC50 ([3]; read-out: mTOR IC50 (in parentheses)): 28 nM; IC50 [3, 7]: < 100 nM
COc1ncc2cc1NS(=O)(=O)c1cccc(c1)C(=O)N(C)CC1CCN(CC1)c1ccnc3ccc-2cc13 [compound 24] | < 100 nM | > 1000 nM | < 100 nM | 3 nM | IC50 [3, 14]: 4 nM
COc1ncc2cc1NS(=O)(=O)c1cccc(c1)C(=O)NCc1cccc(c1)-c1ncnc3sc-2cc13 [compound 37] | < 100 nM | > 1000 nM | > 1000 nM | 20 nM | –
COc1ncc2cc1NS(=O)(=O)c1cccc(c1)C(=O)NCCCCNc1ccnc3ccc-2cc13 [compound 7] | > 1000 nM | > 1000 nM | > 1000 nM | – | –
CC(C)Oc1ncc2cc1NS(=O)(=O)c1cccc(c1)C(=O)NCCn1cc(cn1)-c1ncnc3c1SC2=C3 [compound 59] | > 1000 nM | > 1000 nM | > 1000 nM | – | –
COc1ncc2cc1NS(=O)(=O)c1cccc(c1)C(=O)NCc1cncc(c1)-c1cnc3ccc-2cn13 [compound 30] | < 100 nM | > 1000 nM | < 100 nM | 11 nM | IC50 [3, 14]: 49 nM
COc1ncc2cc1NS(=O)(=O)c1cccc(c1)C(=O)NCC1=CC=C(S1)c1c(C#N)cnc3c1SC2=C3 [compound 73] | > 1000 nM | < 100 nM | > 1000 nM | – | IC50 [2, 13]: 45 nM

Structure (SMILES) | IC50 [1, 8] | IC50 [2, 9] | IC50 [3, 10] | IC50 [1, 11] | also measured
COc1ncc2cc1NS(=O)(=O)c1cccc(c1)C(=O)NCc1cccc(c1)-c1ncnc3c1SC2=C3 [compound 28] | 100 to 1000 nM | 100 to 1000 nM | > 1000 nM | – | –
COc1ncc2cc1NS(=O)(=O)c1cc(ccc1F)C(=O)NCc1cncc(c1)-c1ncnc3c1SC2=C3 [compound 52] | 100 to 1000 nM | 100 to 1000 nM | > 1000 nM | – | –
COc1ncc2cc1NS(=O)(=O)c1cccc(c1)C(=O)NCCN1CC=C(CC1)c1cnc3ccc-2cn13 [compound 40] | < 100 nM | > 1000 nM | < 100 nM | 3 nM | IC50 [3, 14]: 36 nM
COc1ncc2cc1NS(=O)(=O)c1cccc(c1)C(=O)NCc1cncc(c1)-c1nc(C(C)C)nc3c1SC2=C3 [compound 60] | > 1000 nM | > 1000 nM | > 1000 nM | – | –
COc1ncc2cc1NS(=O)(=O)c1cccc(c1)C(=O)NCC1=CC=C(S1)c1ccnc3[nH]c-2cc13 [compound 78] | 100 to 1000 nM | 100 to 1000 nM | > 1000 nM | – | –
O=C1NCc2cc(ccn2)-c2ncnc3c2SC(=C3)c2cncc(c2)NS(=O)(=O)c2cccc1c2 [compound 43] | < 100 nM | < 100 nM | > 1000 nM | 44 nM | IC50 [2, 13]: 41 nM
COc1ncc2cc1NS(=O)(=O)c1cccc(c1)C(=O)NCC1=CC=C(O1)c1ncnc3c1SC2=C3 [compound 69] | 100 to 1000 nM | 100 to 1000 nM | > 1000 nM | – | –
COc1ncc2cc1NS(=O)(=O)c1cccc(c1)C(=O)NCc1cncc(c1)-c1ncnc3c1SC2=C3C [compound 56] | < 100 nM | < 100 nM | 100 to 1000 nM | 13 nM | IC50 [2, 13]: 56 nM
COc1ncc2cc1NS(=O)(=O)c1cc(c(F)cc1F)C(=O)NCc1cncc(c1)-c1ccnc3ccc-2nc13 [compound 71] | < 100 nM | > 1000 nM | < 100 nM | 0.15 nM | IC50 [3, 14]: 25 nM
COc1ncc2cc1NS(=O)(=O)c1cccc(c1)C(=O)NCc1cncc(c1)-c1ncnc3c1SC2=C3 [compound 27] | 100 to 1000 nM | < 100 nM | > 1000 nM | – | IC50 [2, 13]: 40 nM
O=C1NCc2cncc(c2)-c2cnc3sc(nn23)-c2cnc(O)c(c2)NS(=O)(=O)c2cccc1c2 [compound 9] | 100 to 1000 nM | 100 to 1000 nM | > 1000 nM | – | –
COc1ncc2cc1NS(=O)(=O)c1cccc(c1)C(=O)NCc1nc(cs1)-c1ncnc3c1SC2=C3 [compound 79] | 100 to 1000 nM | > 1000 nM | > 1000 nM | – | –
COc1ncc2cc1NS(=O)(=O)c1cccc(c1)C(=O)NCc1cc(F)cc(c1)-c1ncnc3c1SC2=C3 [compound 72] | > 1000 nM | 100 to 1000 nM | > 1000 nM | – | –
COc1ncc2cc1NS(=O)(=O)c1ccc(F)c(c1)C(=O)NCC1=CC=C(S1)c1ncnc3c1SC2=C3 [compound 82] | < 100 nM | < 100 nM | > 1000 nM | 57 nM | IC50 [2, 13]: 13 nM
COc1ncc2cc1NS(=O)(=O)c1cccc(c1)C(=O)NC[C@@H]1CCN(C1)c1ncnc3c1SC2=C3C [compound 94] | – | – | – | – | IC50 [1, 12]: 26 nM; IC50 [1, 4]: < 100 nM; IC50 [2, 5]: 65 nM; IC50 [2, 6]: < 100 nM; IC50 [3, 7]: > 1000 nM
COc1ncc2cc1NS(=O)(=O)c1cccc(c1)C(=O)NCCN1CC=C(CC1)c1cnc3ccc-2nn13 [compound 23] | < 100 nM | > 1000 nM | < 100 nM | 5 nM | IC50 [3, 14]: 22 nM
